Values of other authors, collected in PMC7434893 (British Journal of Cancer, 2020).

Target: tankyrase 1/2
Conditions: relative to E7449; cited from earlier work

Row | Compound | IC50 values for tankyrase inhibition, fold higher than E7449
1 | O=C(c1cc(Cc2n[nH]c(=O)c3ccccc23)ccc1F)N1CCN(C(=O)C2CC2)CC1 [olaparib] | 5–20 fold
2 | NC(=O)c1cccc2cn(-c3ccc([C@@H]4CCCNC4)cc3)nc12 [niraparib] | 5–20 fold
3 | C[C@]1(c2nc3c(C(N)=O)cccc3[nH]2)CCCN1 [veliparib] | 5–20 fold
